# Values joined by “and” are separate entries in the source; they are usually repeats but may differ in a detail not shown here. Equal values may be shown once.
# Key:
# [1] = biological target: T1, CHOK1 cells engineered to overexpress human CCR2 (Homo sapiens, UniProt P41597); assay: Antibody dependent cellular cytotoxicity (ADCC) reporter assay (Example 199); format: cell-based; settings: with anti-cotinine antibody SEQ ID NO: 11/12; CHOK1-human CCR2 target cells, Jurkat FcγRIIIa NFAT-luciferase reporter cells; 12-18 hours; read-out: ADCC Reporter Assay pEC50 (converted)
# T1 construct: expressed in transfected cells; host or cells: CHOK1 cells
# Outline: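 Potency is reported as pEC50 from a nonlinear fit, averaged over runs, using luciferase signal divided by that of compound-free wells. The readout comes from NFAT-luciferase Jurkat cells expressing FcγRIIIa, mixed for 12–18 h with human CCR2-overexpressing CHOK1 cells, 1 pM–10 μM ARM compound and 0.01–200 μg/mL Fc-enhanced anti-cotinine IgG1.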
# [2] = biological target: Anti-cotinine antibody (SEQ ID NO: 11 / SEQ ID NO: 12, rabbit variable region with human IgG1 Fc domain); assay: Binding of anti-cotinine antibody to ARM compounds by SPR, Biacore T200, 37° C. (Example 202); settings: pH 7.4, rabbit variable region/human IgG1 Fc antibody captured on protein A
# Method: Anti-cotinine antibodies having a heavy chain sequence of SEQ ID NO: 11 and a light chain sequence of SEQ ID NO: 12 (rabbit variable region with human IgG1 Fc domain containing a DE mutation (S239D/1332E)) were captured on one or more flow cells of a protein A sensor chip (Cytiva) using a Biacore T200 while reserving flow cell 1 as a reference. Following capture, a 3000 second wait step was included to reduce drift during compound analysis. ARM compounds of Formula (I) were then injected at 100 μL/min with 200 and 2000 second association and dissociation times. The entire experiment was run at 37° C. with running buffer containing 10 mM HEPES pH 7.4, 150 mM NaCl, 0.005% P20 and 1% DMSO. ARM compounds of Formula (I) were titrated with a top concentration of 200 nM using a 3-fold 5-point dilution series and a corresponding 5-injection buffer cycle was run for blank subtraction. Data were double referenced by subtracting the response of the reference flow cell from that of the antibody-containing flow cell and subsequently subtracting the referenced blank sensorgrams. Following compound analysis, the surface was regenerated using a 30 second injection of pH 1.5 glycine at a flow rate of 30 μL/min after which antibody was re-captured. The experiment was run using Biacore T200 control software and evaluated using Biacore T200 Evaluation software. Curves were fit with a 1:1 kinetic binding model to obtain kon(1/Ms), koff(1/s), Kd (M) determined as koff/kon, and residence time determined as 1/koff. (s).
# Anti-cotinine antibody was tested for binding to ARMs compounds of Formula (I) of the invention in the above assay in or more experimental runs and the results are shown in Table 5 below. Affinity is reported as a pKd value. The pKd value is the negative log of the Kd value, wherein the Kd value is the dissociation constant measured in molar (M) as noted above. For compounds tested in more than one experimental run, the pKd value is reported as an average.
Structure (SMILES),pKd of Antibody for ARM Compound of Formula (I) [2],EC50 [1]
CC(C)N(C)[C@@H]1CC[C@H](N2CC[C@H](Nc3ncnc4ccc(C(F)(F)F)cc34)C2=O)[C@H](NC(=O)[C@H]2C[C@H](NC(=O)CCOC[C@H]3CC[C@H](COCCNC(=O)[C@H]4CC(=O)N(C)[C@@H]4c4cccnc4)CC3)C2)C1 [Example 54],9.5515,1 nM
CC(C)N(C)[C@@H]1CC[C@H](N2CC[C@H](Nc3ncnc4ccc(C(F)(F)F)cc34)C2=O)[C@H](NC(=O)[C@H]2C[C@@H](NC(=O)CCOC[C@H]3CC[C@H](COCCNC(=O)[C@H]4CC(=O)N(C)[C@@H]4c4cccnc4)CC3)C2)C1 [Example 55],9.4085,0.377 nM
"CC(C)N(C)[C@@H]1CC[C@H](N2CC[C@H](Nc3ncnc4ccc(C(F)(F)F)cc34)C2=O)[C@H](NC(=O)[C@H]2CC[C@@H](NC(=O)CCCC(=O)NCCCC(=O)NCCCNC(=O)[C@H]3CC(=O)N(C)[C@@H]3c3cccnc3)CC2)C1 [Example 56, N-((1S,4s)-4-(((1R,2S,5R)-5-(Isopropyl(methyl)amino)-2-((S)-2-oxo-3-((6-(trifluoromethyl)quinazolin-4-yl)amino)pyrrolidin-1-yl)cyclohexyl)carbamoyl)cyclohexyl)-N^5-(4-((3-((2S,3S)-1-methyl-5-oxo-2-(pyridin-3-yl)pyrrolidine-3-carboxamido)propyl)amino)-4-oxobutyl)glutaramide]",9.3185,0.655 nM and 0.128 nM
CN1C(=O)C[C@H](C(=O)NCC(=O)NCCOCCOCCC(=O)N[C@H]2CC[C@@H](C(=O)N[C@@H]3C[C@H](NC(C)(C)C)CC[C@@H]3N3CC[C@H](Nc4ncnc5ccc(C(F)(F)F)cc45)C3=O)CC2)[C@H]1c1cccnc1 [Example 65],8.648,1.4 nM and 0.498 nM
CC(C)N(C)[C@@H]1CC[C@H](N2CC[C@H](Nc3ncnc4ccc(C(F)(F)F)cc34)C2=O)[C@H](NC(=O)[C@H]2C[C@@H](NC(=O)CCOCCOCCNC(=O)CNC(=O)[C@H]3CC(=O)N(C)[C@@H]3c3cccnc3)C2)C1 [Example 66],8.649,0.431 nM
"CC(C)N(C)[C@@H]1CC[C@H](N2CC[C@H](Nc3ncnc4ccc(C(F)(F)F)cc34)C2=O)[C@H](NC(=O)COCCOCCNC(=O)COCCNC(=O)CCNC(=O)[C@H]2CC(=O)N(C)[C@@H]2c2cccnc2)C1 [Example 74, (2S,3S)-N-(1-(((1R,2S,5R)-5-(isopropyl(methyl)amino)-2-((S)-2-oxo-3-((6-(trifluoromethyl)quinazolin-4-yl)amino)pyrrolidin-1-yl)cyclohexyl)amino)-1,10,16-trioxo-3,6,12-trioxa-9,15-diazaoctadecan-18-yl)-1-methyl-5-oxo-2-(pyridin-3-yl)pyrrolidine-3-carboxamide]",9.091,9.64 nM
CC(C)N(C)[C@@H]1CC[C@H](N2CC[C@H](Nc3ncnc4ccc(C(F)(F)F)cc34)C2=O)[C@H](NC(=O)CCOCCOCCNC(=O)COCCNC(=O)CCNC(=O)[C@H]2CC(=O)N(C)[C@@H]2c2cccnc2)C1 [Example 75],9.103,1.63 nM

# More lines, main results first:
pKd of Antibody for ARM Compound of Formula (I) [2],Structure (SMILES),EC50 [1]
9.126,CC(C)N(C)[C@@H]1CC[C@H](N2CC[C@H](Nc3ncnc4ccc(C(F)(F)F)cc34)C2=O)[C@H](NC(=O)COCCNC(=O)CCNC(=O)COCCOCCNC(=O)[C@H]2CC(=O)N(C)[C@@H]2c2cccnc2)C1 [Example 79],5.2 nM
9.109,CC(C)N(C)[C@@H]1CC[C@H](N2CC[C@H](Nc3ncnc4ccc(C(F)(F)F)cc34)C2=O)[C@H](NC(=O)COCCNC(=O)CNC(=O)CCOCCOCCNC(=O)[C@H]2CC(=O)N(C)[C@@H]2c2cccnc2)C1 [Example 80],1.58 nM
9.302,CC(C)N(C)[C@@H]1CC[C@H](N2CC[C@H](Nc3ncnc4ccc(C(F)(F)F)cc34)C2=O)[C@H](NC(=O)[C@H]2CC[C@@H](NC(=O)CNC(=O)CCOCCOCCNC(=O)[C@H]3CC(=O)N(C)[C@@H]3c3cccnc3)CC2)C1 [Example 83],0.269 nM

# From patent publication US20250136722A1, “CYTOTOXICITY TARGETING CHIMERAS” (GLAXOSMITHKLINE INTELLECTUAL PROPERTY DEVELOPMENT LIMITED, priority 2021, published 2025)
